Experimental data reported in patent publication US7645740B2, “Peptide sequence found in Laminin 5 for treating skin impairments” (Laboratoires d'Anjou Centre National de la Recherche …, priority 2004, dated 2010).

What was measured:
[1] = tested on: HT1080 cells (human fibrosarcoma); test: Cell adhesion test to immobilized peptides, HT1080; type: cell-based; details: HT1080, 0 to 10 micrograms immobilized peptide, 8×10^4 cells per well, 1 hour 37° C., absorbance 570 nm
Method: (§1) Dose-dependent cell adhesion of cell line HT1080 to various peptides 1, 2 and 3. The peptides were immobilized in 96-well plates at the concentrations given on the abscissa. 8×10^4 cells were deposited in each well and plates were incubated at 37° C. for 1 hour. After washing, attached cells were fixed and cell adhesion was measured as described in the methodology section.
Dose-dependent cell adhesion of HT1080 cells to various peptide TALRIRATYGEY (SEQ ID NO. 1). The peptides were immobilized in 96-well plates in the quantities given on the abscissa. 8×10^4 cells and 15×10^4 cells were deposited in each well and plates were incubated at 37° C. for 1 hour. After washing, attached cells were fixed and cell adhesion was measured as described in the methodology section. Cells were observed by phase contrast microscopy then photographed. Bar =50 μm
(§2) Peptides 1, 2 and 3 were used for the cell adhesion experiments. A range of 7 decreasing concentrations (100 micrograms/ml, 50 micrograms/ml, 25 micrograms/ml, 12.5 micrograms/ml, 6.25 micrograms/ml, 3.125 micrograms/ml and 1.562 micrograms/ml) was made up by successive dilution in PBS (Phosphate Buffer Saline, KH2PO4 1.54 mM; Na2HPO4 1.42 mM; NaCl-131 mM) using a starting solution at a concentration of 1 mg/ml. These solutions were immediately distributed onto a 96-well culture plate (Greinher, Dutscher, Brumath, France) at a rate of 100 μl per well. Plates were then placed at +4° C. for 16 to 18 hours. The solutions were then removed by turning the plates and each well was saturated with a 1% PBS-BSA solution (bovine serum albumin). Three additional wells without the substrate underwent the same treatment and were used as blanks.
(§3) Epithelial cells were detached from the culture dishes using a trypsin/EDAT solution (0.05-0.02%) then suspended in DMEM medium without additives for the cell lines and in KBM-2 without additive for human keratinocytes. The number of seeded cells per well is given in the graphs (50,000 to 100,000 cells per well).
(§4) After cell seeding, the multi-well plates were placed in an incubator at 37° C. under 5% CO2. After incubation for 30 to 60 minutes, cells were observed under a phase contrast microscope in order to verify that the test was conducted correctly. The adhesion medium was then removed and each well was washed in a sterile PBS solution to remove non-adhering cells. The remaining cells, attached to the substrate, were then fixed using a solution of 1% glutaraldehyde in PBS for 15 minutes. The glutaraldehyde solution as removed and the cells were stained with a crystal violet solution diluted to 1% in distilled water for 30 minutes.
After rinsing in water several times, cells were permeabilized by means of a 0.02% triton solution for 15 minutes in order to solubilize the crystal violet. Absorbances were read at 570 nm using an ELISA plate reader (MR500, Dynatech, Guernsey, Channel Islands). Each experimental point was carried out in triplicate. The blank value represented the mean absorbance of 3 control wells (BSA). […] We then calculated the mean for the three absorbance values for each of the triplicate samples.
The results are presented in the form of a graph with the absorbance values on the ordinate and the various substrate concentrations on the abscissa. […]
A second approach was taken in order to determine the minimum quantity of active peptide and the number of adhering cells was increased in order to obtain a confluent cell network. […]

NHKs [2] = test: Cell adhesion of NHKs to peptides co-immobilized with laminin 5; type: cell-based, human; details: laminin 5 fixed quantity 0.2 mg, 50,000 cells per well, percentage of LN5 alone
Method: Peptides 1, 2 and 3 (variable quantities indicated) and laminin 5 (fixed quantity 0.2 mg) were co-immobilized in 96-well plates. 5×104 NHKs were deposited in each well and plates were incubated at 37° C. for 1 hour. After washing, attached cells were fixed and cell adhesion was measured as described in the methodology section. Cell adhesion in the presence of the peptide is given as a percentage of cell adhesion obtained with laminin 5 alone. Cells were observed by phase contrast microscopy then photographed. Bar=50 μm.
(§5) A decreasing range of LN5 (prepared in the laboratory) and COL4 (BD Biosciences, Le Pont de Claix, France) quantities was made up by successive dilution in PBS. These solutions were immediately distributed into a 96-well culture plate (Costar) at a rate of 100 μl per well. The experiment was conducted in exactly the same way as the experiment described in example 2. The results are given in the form of a graph with the absorbance values representing adhesion on the ordinate and the various substrate concentrations on the abscissa. Attached cells were photographed by phase contrast microscopy.
In order to analyse the effect of the peptide on cell adhesion to DEJ proteins, peptide TALRIRATYGEY (SEQ ID NO.1) (peptide 1) was co-immobilized with LN5 (FIG. 14) and COL4 (FIG. 15). The fixed quantity of matrix protein (LN5 and COL4) and the variable quantity of peptide are given on the graph (FIGS. 14 and 15). Peptides 2 and 3 (described in example 1) were used as controls for the experiment. The adhesion tests were carried out with NHK under the same conditions as the experiment given in FIG. 13 (50,000 cells per well). A peptide-free control representing 100% adhesion (LN5 only and COL4 only) was used to allow analysis of the effect of adhesion relating to the presence of the peptide. The results are given as a percentage of this control.

[3] = tested on: A431 cells (skin epitheloids); test: Cell adhesion test to immobilized peptides, A431; type: cell-based; details: A431, 0 to 10 micrograms immobilized peptide, 8×10^4 cells per well, 1 hour 37° C., absorbance 570 nm
Method: as §1, with “A431” for “HT1080”
as §2, §3, §4
(§6) After rinsing in water several times, cells were permeabilized by means of a 0.02% triton solution for 15 minutes in order to solubilize the crystal violet. Absorbances were read at 570 nm using an ELISA plate reader (MR500, Dynatech, Guernsey, Channel Islands). Each experimental point was carried out in triplicate. The blank value represented the mean absorbance of 3 control wells (BSA). This was subtracted from each of the optical density values for the experimental points. We then calculated the mean for the three absorbance values for each of the triplicate samples.
(§7) The results are presented in the form of a graph with the absorbance values on the ordinate and the various substrate concentrations on the abscissa. Attached cells were photographed by phase contrast microscopy.
(§8) The following cells from epithelial cell lines were used initially (commonly used in preliminary studies on cell adhesion): • line HT1080 cells (human fibrosarcoma), American Type Culture Collection CCL-121. • line HB100 cells (human mammary epithelium), American Type Culture Collection HTB-124. • line A431 cells (skin epitheliods), American Type Culture Collection CRL-1555.

[4] = tested on: normal human keratinocytes; test: Cell adhesion test to immobilized peptides, normal human keratinocytes; type: cell-based; details: 0 to 10 micrograms immobilized peptide, 10^5 cells per well, 1 hour 37° C., absorbance 570 nm
Method: as §1, with “normal human keratinocytes” for “cell line HT1080”, “10^5” for “8×10^4”
as §2, §3, §4, §6, §7
Freshly isolated normal human keratinocytes were used in a second experiment. As the basal keratinocytes of the epidermis are in direct contact with LN-5 in the skin, it was necessary to test their adhesion capacity to the peptide in question. Human keratinocytes were obtained from a foreskin biopsy (surgery waste, Pavillon T-Bis, Eduard Herriot Hospital). […]

[5] = tested on: HBL100 cells (human mammary epithelium); test: Cell adhesion test to immobilized peptides, HBL100; type: cell-based; details: HBL100, 0 to 10 micrograms immobilized peptide, 8×10^4 cells per well, 1 hour 37° C., absorbance 570 nm
Method: as §1, with “HBL100” for “HT1080”
as §2, §3, §4, §6, §7, §8

NHKs [6] = test: Cell adhesion of NHKs to laminin 5 and collagen IV substrates; type: cell-based, human; details: 0 to 2 micrograms per well, 5×10^4 NHKs per well, 1 hour 37° C.
Method: (A) Diagrammatic representation of laminin 5 and collagen IV in the dermo-epidermal junction (DEJ). (B) Dose-dependent cell adhesion of NHKS to laminin 5 and collagen IV. laminin 5 and collagen IV were fixed to 96-well plates in the quantities given on the abscissa. 5×10^4 NHKs were deposited in each well and plates were incubated at 37° C. for 1 hour. After washing, attached cells were fixed and cell adhesion was measured as described in the methodology section.
as §5

Row | Substance | cell adhesion to immobilized peptide [1] | effect on adhesion of NHKs to LN5 (co-immobilized) (NHKs [2]) | cell adhesion to immobilized peptide [3] | cell adhesion to immobilized peptide [4] | cell adhesion to immobilized peptide [5] | adhesion of NHKs to substrate protein (NHKs [6])
1 | DVKNLENIRDNL (Human laminin 5) [Peptide 3, control peptide from the terminal carboxy end of the gamma 2 chain of laminin 5, position 1169-1180, reference compound] | did not lead to any adhesion | do not modify adhesion | did not lead to any adhesion | did not lead to any adhesion | did not lead to any adhesion | –
2 | GLTKTYTFRLNE (Human laminin 5) [Peptide 2, control peptide from the gamma 2 chain of laminin 5, position 309-321, reference compound] | did not lead to any adhesion | do not modify adhesion | did not lead to any adhesion | did not lead to any adhesion | did not lead to any adhesion | –
3 | LN5: laminin 5, dermo-epidermal junction glycoprotein, prepared in the laboratory, used as adhesion substrate | – | – | – | – | – | much better substrate
